Biological target: T1, cAMP and cAMP-inhibited cGMP 3',5'-cyclic phosphodiesterase 10A (Rattus norvegicus, UniProt Q9QYJ6)
T1 sequence (Q9QYJ6 whole entry): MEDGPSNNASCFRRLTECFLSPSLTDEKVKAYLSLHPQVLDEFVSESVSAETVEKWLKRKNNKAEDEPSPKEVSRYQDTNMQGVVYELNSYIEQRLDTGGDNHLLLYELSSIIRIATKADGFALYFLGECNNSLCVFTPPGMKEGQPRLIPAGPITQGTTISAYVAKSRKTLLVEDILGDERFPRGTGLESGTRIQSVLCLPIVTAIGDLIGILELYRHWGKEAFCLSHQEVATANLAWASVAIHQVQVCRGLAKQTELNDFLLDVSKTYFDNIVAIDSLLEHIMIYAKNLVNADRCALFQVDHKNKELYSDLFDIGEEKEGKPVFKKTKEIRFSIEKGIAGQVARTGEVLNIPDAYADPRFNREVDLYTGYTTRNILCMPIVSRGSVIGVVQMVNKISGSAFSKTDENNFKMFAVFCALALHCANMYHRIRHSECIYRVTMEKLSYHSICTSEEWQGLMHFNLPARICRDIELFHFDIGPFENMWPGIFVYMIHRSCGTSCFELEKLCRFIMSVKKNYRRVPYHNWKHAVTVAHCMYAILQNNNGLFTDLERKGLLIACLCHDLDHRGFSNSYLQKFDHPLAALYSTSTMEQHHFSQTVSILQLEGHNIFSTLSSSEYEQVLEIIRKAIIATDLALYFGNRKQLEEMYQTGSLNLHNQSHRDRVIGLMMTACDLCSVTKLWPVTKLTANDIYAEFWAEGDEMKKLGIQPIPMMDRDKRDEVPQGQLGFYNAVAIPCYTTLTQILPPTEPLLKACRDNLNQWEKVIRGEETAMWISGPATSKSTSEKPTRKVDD
Test: PDE Competitive Enzyme Inhibition Assay
Details: pH 7.5; 22 °C
Excerpt: PDE activity was monitored by measuring the hydrolysis of [3H]-cAMP to [3H]-AMP using a scintillation proximity assay (SPA). [3H]-AMP was captured by the SPA beads, and quantified on a TopCount plate reader.

COc1cc2ncnc(N3CC[C@@H](Oc4ccc(C(C)(C)C)cc4)C3)c2cc1OC [(R)-4-[3-(4-tert-Butyl-phenoxy)-pyrrolidin-1-yl]-6,7-dimethoxy-quinazoline]
Ki: 100 nM

From BindingDB's records for doi:10.1021/jm060653b (Pfizer, 2007)
